We go through four compounds from patent US10870646B2, “Oxazolidinones and pharmaceutical compositions thereof for treating bacterial infections, including infection of Mycobacterium tuberculosis” (University of St. Thomas, priority 2017, dated 2020).

The term MIC90 denotes an inhibitory concentration at the 90% level, which refers to growth in some studies and to a panel of isolates in others.

Values after ≈ are worked out from the molar mass of the structure shown. Read-outs that look alike come from different tables or passages of the source.

Experiment [1] has as its system Mycobacterium tuberculosis H37Rv. Description: MIC90 broth macrodilution. Format: cell-based.
The next experiment has as its system Mtb. It is filed as cell-based, Mycobacterium tuberculosis.
For experiment [2], the system named is Mycobacterium tuberculosis 115R. Description: MIC90 broth macrodilution. It is filed as cell-based.
For experiment [3], the system named is Mycobacterium tuberculosis 124R. Kind of experiment: MIC90 broth macrodilution. Format: cell-based.

Consider `CC(=O)NC[C@H]1CN(c2ccc3c(c2)Oc2ccccc2O3)C(=O)O1` [Compound T145], for which the “activity against growth (in words)” value in experiment [1] is given as “potent activity”. Besides, the “frequency of spontaneous mutations that confer resistance” value in the experiment on Mtb was 4.0×10^−8. The MIC90 in experiment [2] and in experiment [3] was 0.5 to 1 µg/mL (≈ 1.47 to 2.94 µM) throughout.
For `COc1cccc2c1Oc1ccc(N3C[C@H](CNC(C)=O)OC3=O)cc1O2` [Compound T197, (S)—N-((3-(6-methoxydibenzo[b,e][1,4]dioxin-2-yl)-2-oxooxazolidin-5-yl)methyl)acetamide], the figures for the MIC90 in experiment [2] (read-out: MIC90) and in experiment [3] (read-out: MIC90) were 8 to 16 µg/mL (≈ 21.6 to 43.2 µM) and 4 to 8 µg/mL (≈ 10.8 to 21.6 µM), respectively.
Take `CC(=O)NC[C@H]1CN(c2ccc(N3CCOCC3)c(F)c2)C(=O)O1` [Linezolid, reference compound]: the MIC90 in experiment [2] (read-out: MIC90) and in experiment [3] (read-out: MIC90) was 0.25 to 0.5 µg/mL (≈ 0.741 to 1.48 µM) throughout.
On to `C[C@@H](O)[C@H]1C(=O)N2C(C(=O)O)=C(S[C@@H]3CN[C@H](C(=O)N(C)C)C3)[C@H](C)[C@H]12` [Meropenem, reference compound], for which the MIC90 in experiment [2] (read-out: MIC90) and in experiment [3] (read-out: MIC90) was 8 to 16 µg/mL (≈ 20.9 to 41.7 µM) throughout.
